Measurements as given in PMC7005745 (Scientific Reports, 2020).
Where two headings read alike, the source gives them in different places.

What was measured:
YopH secretion (T3SS) = format: cell-based, Yersinia pseudotuberculosis
[1] = test system: ExoS expression (T3SS), PAK(pCS500); format: cell-based, Pseudomonas aeruginosa; conditions: read-out: IC50 ExoS-gfp
[2] = test system: P. aeruginosa PAK(pCS500); format: cell-based, Pseudomonas aeruginosa
yopE expression (T3SS) = format: cell-based, Yersinia pseudotuberculosis; conditions: for IC50: read-out: E-lux IC50
[3] = test system: Y. pseudotuberculosis serotype III strain YPIII(pIB102E-lux); format: cell-based, Yersinia pseudotuberculosis
[4] = test system: wild-type P. aeruginosa strain PAK infecting J774 cells
[5] = test system: Y. pseudotuberculosis YPIII(pIB102; pFU95); format: cell-based, Yersinia pseudotuberculosis
[6] = test system: secretion of Yop effector proteins (T3SS), YPIII(pIB102); format: cell-based, Yersinia pseudotuberculosis; conditions: 40 µM, Western blot
[7] = YopH secretion, YPIII(pIB102E-lux), T3S-inducing conditions, compounds 1–100 µM
[8] = yopE expression, YPIII(pIB102E-lux), T3S-inducing conditions, compounds 1–100 µM
[9] = Y. pseudotuberculosis, LB with 2.5 mM CaCl2, 37 °C, OD600 up to 24 h
[10] = combined yopE-lux and YopH phosphatase assay

Molecule | IC50 (YopH secretion (T3SS); [7]) [µM] | IC50 [1] [µM] | Tocxicity P.a. [2] | Toxicity J774 (J774 cells) | IC50 (yopE expression (T3SS); [8]) [µM] | Growth inhibition [3, 9] | IC50 (YopH secretion (T3SS)) [µM] | Growth inhibition [3] | IC50 (yopE expression (T3SS)) [µM] | Efficacy Pa J774 [4] | other results
Oc1ccc(-c2oc3ccc(/C=C/c4cc(O)cc(O)c4)cc3c2-c2cc(O)cc(O)c2)cc1 [compound 10, Dehydro-δ-viniferin] | 4 | 8 | No | Tox | 5 | – | – | – | – | – | Inhibition of YopH secretion (in words) (YopH secretion (T3SS); 1–100 µM, Fig. 1b): dose-dependent inhibition; Inhibition of yopE expression (in words) (yopE expression (T3SS); 1–100 µM, Fig. 1a): dose-dependent inhibition
(±)-δ-Viniferin [compound 9] | 15 | – | – | – | 29 | No | – | – | – | – | –
Anigopreissin A [compound 11] | – | 15 | No | Some tox | – | – | 6 | detrimental effect on bacterial growth and Yes | 12 | – | Inhibition of YopH secretion (in words) (YopH secretion (T3SS)): dose-dependent inhibition; Inhibition of yopE expression (in words) (yopE expression (T3SS)): dose-dependent inhibition
Oc1ccc(/C=C/c2cc(O)cc3c2[C@@H](c2cc(O)cc(O)c2)[C@H](c2ccc(O)cc2)O3)cc1 (racemic) [compound 6, (±)-ε-Viniferin] | – | 89 | No | No | – | – | 30 | No | > 50 | No | –
C#CCOc1ccc(-c2oc3cc(O)cc(/C=C/c4ccc(O)cc4)c3c2-c2cc(O)cc(O)c2)cc1 [compound 13, Propagylated viniferifuran] | – | – | – | – | – | – | 3 | – | 6 | – | Binding to bacteria [5]: clear binding; Competition of binding by free viniferifuran [5]: binding could be outcompeted
Oc1ccc(/C=C/c2cc(O)cc3c2[C@@H](c2cc(O)cc(O)c2)[C@H](c2ccc(O)cc2)O3)cc1 (racemic) [compound 7, (±)-Cis-ε-viniferin (Omega-viniferin)] | – | – | – | – | – | – | 48 | No | > 50 | – | –
(-)-Hopeaphenol [compound 1, reference compound] | 7 | 9 | No | – | 10 | No | – | – | – | – | Reversibility of block of effector secretion (T3SS) after washing [6]: irreversibly block secretion of effector molecules; Reversibility of block of effector secretion (T3SS) after washing ([6]; listed as (-)-hopeaphenol): irreversible; Inhibition of T3SS-mediated cytotoxicity ([4]; 50 µM): complete inhibition of cytotoxicity
Oc1ccc(/C=C\c2cc(O)cc3oc(-c4ccc(O)cc4)c(-c4cc(O)cc(O)c4)c23)cc1 [compound 8, Viniferifuran] | 4 | 11 | No | Tox | 10 | without any effect on bacterial growth and No | – | – | – | – | Reversibility of block of effector secretion (T3SS) after washing [6]: irreversibly block secretion of effector molecules; Reversibility of block of effector secretion (T3SS) after washing ([6]; listed as viniferifuran): irreversible; Inhibition of YopH secretion (in words) (YopH secretion (T3SS); 1–100 µM, Fig. 1b): dose-dependent inhibition; Inhibition of yopE expression (in words) (yopE expression (T3SS); 1–100 µM, Fig. 1a): dose-dependent inhibition; Inhibition of the T3SS (in words) (yopE expression (T3SS); [10]): good inhibition
Oc1ccc(/C=C/c2cc(O)cc3c2[C@@H](c2cc(O)cc(O)c2)[C@H](c2ccc(O)cc2)O3)cc1 [compound 5, (+)-ε-Viniferin] | 15 | – | – | – | > 50 | No | – | – | – | modest or no efficacy | –
(±)-Dehydro-ampelopsin B [compound 4] | – | 33 | No | No | – | – | 20 | No | 40 | No | Inhibition of the T3SS (in words) (yopE expression (T3SS)): no or modest inhibition
Oc1ccc([C@H]2c3c(O)cc(O)cc3[C@H]3c4c(cc(O)cc4[C@@H]2O)O[C@@H]3c2ccc(O)cc2)cc1 (racemic) [compound 2, (±)-Ampelopsin A] | > 50 | > 200 | No | No | > 50 | No | – | – | – | No | Inhibition of the T3SS (in words) (yopE expression (T3SS); [10]): no or modest inhibition
Oc1ccc([C@@H]2Cc3cc(O)cc4c3[C@H](c3cc(O)cc(O)c32)[C@@H](c2ccc(O)cc2)O4)cc1 (racemic) [compound 3, (±)-Ampelopsin B] | – | 134 | No | No | – | – | 40 | No | > 50 | No | Inhibition of the T3SS (in words) (yopE expression (T3SS)): no or modest inhibition
